“Also recorded” adds a separate entry of the source.
Experiments:
[1] = test system: Raji's-Luc/GFP human B-cell lymphoma cells; experiment: Lym-1 CAR T cell delivery in intracranial Raji lymphoma xenografts (survival); type: in vivo, NSG mice; conditions: IV Lym-1 CAR T (5×10e6) + IC NEO100 (0.3% v/v=492 μM); control mice died within 15-20 days; P=0.0029
Method: 50,000 (5×10^4) human B-cell lymphoma cells, Raji's-Luc/GFP, were injected intracranially into NSG mice.
5 days post the tumor cells injection, the optical imaging was performed to confirm the tumor uptake (100% tumor uptake).
There were 3 experimental groups: (1) Control; (2) IV CAR T (5×10e6); (3) IV CAR T (5×10e6)+IC NEO100 (0.3% v/v=492 μM)
Body weight was monitored for the physical condition of the mice during the treatment. Tumor growth was monitored by optical imaging.

[2] = test system: blood-brain-barrier
Method: Brain Perfusion—Before euthanizing, the testing animals was perfused by 0.9% normal saline solution through left ventricle. The brain was removed and buried in OCT, and stored in −80° C. for further analysis.
Ultrasound Guided Intracardiac Puncture—Briefly, the animals were anesthetized using 2% isoflurane gas and fixed on the platform for intracardiac puncture. To penetrate the syringe needle into intercoastal space promptly through skin and muscle layers into the left ventricle under the guidance of ultrasound imaging. An indication of successful insertion of the needle into the left ventricle is the reflux of fresh arterial blood (pink color in contrast to dark red venous blood) into the syringe.
The extravasation of stained albumin from circulation could be visualized.
Different concentration of NE0100 (40 μ1 in 0.9% saline) was tested through intracardiac puncture, followed by immediate intravenous application of 2% Evans Blue (40 μ1 in volume). The brain was removed after perfusion.
Experimental groups include: • IC 2% EB only • IC 20% ethanol+2% EB • IC 20% ethanol+2% EB+5% NEO100 • IC 20% ethanol+5% NEO100, followed by 2% EB tail vein injection • IV 20% ethanol+2% EB+5% NEO100 • IV 20% ethanol+2% EB
The immune competent C57 BL/6 mice was injected with 5% NEO100 (v/v) through intracardiac puncture (IC), followed by intravenous injection of 2% Evans Blue at different time points, such as 0, 5 min, 15 min, 30 min, 1-hour, 2-hour, 3-hour, and 4 hours, post the IC injection.
Intracardiac Injection (IC): 5% NEO100. • 2. Followed by intravenous injection (IV) of 2% EB at different times. • 3. The testing animals were euthanized one hour after the IV injection.

[3] = test system: GL261 mouse glioma; experiment: Anti-mouse PD-1 antibody therapeutic efficacy (survival) in intracranial syngeneic mouse glioma; type: in vivo, C57 BL/6 mice
Method: 100,000 GL261 mouse glioma cells were injected intracranially to immune competent mice, C57 BL/6. 7 days post the injection, the mice were randomly divided into 4 experimental groups, and initiated the treatment at the same day. • Group 1. Control: IV and Intracardiac injection of 40 μl Saline Solution (5). • Group 2. Antibody treated mice: IV 40 μl Anti-mouse PD1 antibody at the dose of 2.5 • mg/kg (5). • Group 3. NEO100 treated mice: Intracardiac injection of 40 μl 5% NEO100 (5). • Group 4. Combination of NEO100 and antibody treated mice: Intracardiac 40 μl 5% NEO100, followed by IV 40 μl Anti-PD1 antibody at the dose of 2.5 mg/kg (6).
Animal survival data were plotted using the Kaplan-Meier method. One-way ANOVA was used for the overall test for differences. Grouped comparisons were performed using the Tukey method of adjusting for multiple comparisons. Logrank (Mantel-Cox) test was applied for the comparison of survival curves. A statistical evaluation result of p<0.05 was considered significant.

[4] = test system: recurrent malignant gliomas; conditions: intranasal delivery, cited from earlier work
[5] = test system: Madin-Darby Canine Kidney (MDCK) cells; experiment: In vitro BBB tight junction model (Transwell, TEER, fluorescence antibody); type: cell-based
Method: The labelled components are Transwell chemotaxis chamber; upper chamber; porous membrane and lower chamber. Transwell culture chambers (pore size: 0.8 μm). Madin-Darby Canine Kidney (MDCK) cells are epithelial cells. TEER: transepithelial/transendothelial electrical resistance. Fluorescence Ab: Alexa Fluo® 488; donkey anti-rat IgG (H+L). Fluorescence was measured in the lower chamber in about 120 minutes.

[6] = test system: GL261 mouse glioma; experiment: NEO100-mediated human CAR T cell delivery to brain and tumor (CD3 IHC); type: in vivo
Method: 2-million CD19 and Lym-1 human CAR T cells that were suspended in 0.9% saline working solution to be used for the IV injection with and without intracardiac NEO100.
Preparation of the working solution for intracardiac injection of NEO100: 3% NEO100 suspended in 0.9% saline.
40 μl 3% NEO100 in saline was injected slowly to complete intracardiac application. Direct cell injection into the heart could cause local microinfarctions if the cells are clumpy during injection, hemopericardium and death as a consequence. This is why ultrasound guided injections with a small 30 G needle is important to minimize these potential adverse effects, (1) enabling the visualization of the needle tract to ensure that the needle enters the left ventricle only, and (2) subsequent monitoring of the heart through not only ECG but visualization of heart wall function after the injection. The fine gauge of the needle ensures that the cells are not clumpy when the cells are injected through intracardiac puncture.
Immediate after the completion of NEO100 injection, 2 million human CAR T cells in 40 μl PBS were injected through tail vein catheter that pre-primed with saline solution. To avoid the possible adverse effects mentioned above by direct cell injection through intracardiac application, we set up 2-step procedures for the study.
Step 1: 40 μl 3% NEO100 in saline was injected slowly to complete intracardiac application. This procedure allows NEO100 to exert the function of BBB disruption.
Step 2: 2-million CAR T cells were injected by IV through tail vein catheter.
Brain Perfusion—In order to rule out the residue left over inside the blood vessel after euthanizing, the testing animals were perfused by 10 ml 0.9% normal saline solution through left ventricle to flush out the blood. […] Confocal Imaging—[…] fresh frozen sections were made by cryostasis machine and pasted on microslide. Coverslip was mounted on the brain section by DAPI mounting medium before Confocal examination. […]

[7] = test system: U-87 human glioma cells; experiment: Intracranial glioma model in athymic nu/nu mice (survival); type: in vivo; conditions: applicant's prior experience; untreated mice about four weeks
Method: Male athymic nu/nu mice (6-8 weeks old) will be employed for this research. Rodent subcutaneous/intracranial glioma model can be established as follows. Six to eight week old athymic nu/nu mice will be anesthetized with intraperitoneal injections of ketamine (80 mg/kg) and xylazine (10 mg/kg). For the intracranial glioma model, the mice are placed into a stereotactic head frame (Harvard Apparatus), and local anesthetic (0.2 cc of 0.25% xylocaine) is injected into the right frontal scalp. A knife blade is used to make a small incision, and a drill bit is used to make a small opening in the right frontal skull at the level of the coronal suture. Glioma cells (1×10^5 cells/10 μl), for example, U-87 human glioma cells, will be loaded into a calibrated Hamilton syringe. The needle tip will be placed precisely into the right frontal lobe of the […], and cells will be slowly injected using a control push from the Hamilton syringe. After the injection is finished, the syringe and needle will be removed, and the wound closed. […]
Brains will be harvested, and tumor size determined. […]

SMILES	animal survival (Kaplan Meier) [1]	disturbance of the BBB (Evans Blue uptake into brain) ([2]; NEO100 1:1000 dilution (6.5 mM 40 μl) intracardiac, then 2% Evans Blue IV)	dopamine delivery to the brain ([2]; intracardiac NEO100)	opening of the BBB for antibodies ([2]; intracardiac injection (equivalent to intra-arterial injection for mice))	tight junction in the brain ([2]; intracardiac injection of 5% NEO100 compared to normal brain)	safety of intraarterial administration ([2]; mouse, in vivo)	animal survival, combination ([3]; 40 μl 5% NEO100 intracardiac followed by anti-PD1 antibody 2.5 mg/kg IV)	animal survival, single agent ([3]; NEO100 alone (40 μl 5% intracardiac) or anti-PD1 alone (2.5 mg/kg IV))	patients achieving 6 month progression-free period ([4]; 140 treated patients) [%]	disease response [4]	side effects from the treatment [4]	disease remission ([4]; several patients) [years]	penetration of fluorescence labelled antibody across in vitro BBB model ([5]; Alexa Fluo 488 donkey anti-rat IgG, fluorescence in lower chamber at about 120 minutes)	TEER (transepithelial/transendothelial electrical resistance) ([5]; NEO100 2 mM)	severe adverse effect or animal death ([6]; 3% NEO100 intracardiac injection)	penetration of human CAR T cells (anti-CD19 and Lym-1) into the tumor formed inside the brain ([6]; 40 μl 3% NEO100 intracardiac, then 2 million CAR T cells IV, compared to IV only, 6 h)	CD3 positive cells in the normal parts of brain ([6]; intracardiac NEO100 plus IV CAR T cells vs IV injection only)	survival after implantation [7]
C=C(C)[C@@H]1CC=C(CO)CC1 [NEO100, perillyl alcohol]	survived	still effective to disturb the BBB	mediated dopamine delivery through the breached blood-brain-barrier	could open the BBB for antibodies	breached dramatically	safe to administer intraarterially	still alive	all the controls were dead	50	regression or stabilization of the disease	almost non-existent	≤ 3	transiently allow labeled antibodies to transiently cross it; also recorded: enhanced penetration of fluorescence labelled antibody	decreased TEER	does not cause any severe adverse effect or animal death	greatly increase the penetration into the tumor	More CD3 positive cells were found in the normal parts of brain	
Cn1nnc2c(C(N)=O)ncn2c1=O [TMZ, temozolomide]																		up to 8 weeks
